From paper PMC9013686, “Inter-individual variation in chlorpyrifos toxicokinetics characterized by physiologically based kinetic (PBK) and Monte Carlo simulation comparing human liver microsome and Supersome™ cytochromes P450 (CYP)-specific kinetic data as model input” (Archives of Toxicology, 2022)

How the values were obtained:
Assay type in all cases: in vitro ADME
CYP1A2 in pooled HLMs = biological target: T1, CYP1A2 in pooled HLMs (Homo sapiens, UniProt P05177); test: Pooled HLM incubation with CYP1A2 probe substrate (ISEF determination); details: acetaminophen formation
T1 construct: the native CYPs present in HLM; tissue Corning (Amsterdam, The Netherlands); host or cells: pooled human liver microsomes, 150 donors, mixed gender
T1 sequence (P05177 1-516): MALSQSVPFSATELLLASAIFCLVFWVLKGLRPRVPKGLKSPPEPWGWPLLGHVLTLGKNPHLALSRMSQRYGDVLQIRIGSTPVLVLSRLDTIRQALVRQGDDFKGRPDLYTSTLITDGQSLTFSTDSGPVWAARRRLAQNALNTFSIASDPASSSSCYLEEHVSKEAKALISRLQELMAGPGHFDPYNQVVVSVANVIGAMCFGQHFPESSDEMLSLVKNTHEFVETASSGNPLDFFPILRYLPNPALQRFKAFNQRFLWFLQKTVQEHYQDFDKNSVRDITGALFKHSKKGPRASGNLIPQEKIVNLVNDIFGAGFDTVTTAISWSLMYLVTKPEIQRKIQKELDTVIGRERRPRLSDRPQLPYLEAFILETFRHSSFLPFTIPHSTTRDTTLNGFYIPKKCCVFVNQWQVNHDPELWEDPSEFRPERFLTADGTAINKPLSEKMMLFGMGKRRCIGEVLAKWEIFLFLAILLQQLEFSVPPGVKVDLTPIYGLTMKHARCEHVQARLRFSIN
Description: (§1) To normalize for differences in intrinsic CYP activity between Supersome™ and pooled HLMs and enable scaling of the activities to the in vivo situation, CYP-specific ISEF values need to be established. […] The incubation method was similar as used for the CPF kinetic incubation assay described above, except that certain incubation conditions were replaced by the conditions listed in Table 1. The samples obtained were analyzed by UPLC-PDA for acetaminophen, 4-hydroxymephenytoin, and 6β-hydroxytestosterone formation catalyzed by 1A2, 2C19 and 3A4, or LC–MS/MS for (±)-hydroxybupropion formation catalyzed by 2B6.
(§2) As mentioned before, the in vitro apparent kinetic parameters (Vmax and Km) for pathway 1 and pathway 2 in the HLM-based approach, and pathway 3 in both approaches were all obtained directly from reported studies using pooled HLMs (Buratti et al. [2003]; Sams et al. [2004]; Zhao et al. [2019]). Therefore, no extra calculations were required to define these parameters. […] It should be noted that the kinetic parameters for pathway 4 used in the two approaches were calculated as mean of the kinetic parameters (Vmax and Km) obtained using 25 individual HP samples (with correction for total protein concentration of each plasma sample).

CYP3A4 in pooled HLMs = biological target: T2, CYP3A4 in pooled HLMs (Homo sapiens, UniProt P08684); test: Pooled HLM incubation with CYP3A4 probe substrate (ISEF determination); details: 6β-hydroxytestosterone formation
T2 construct: the native CYPs present in HLM; tissue Corning (Amsterdam, The Netherlands); host or cells: pooled human liver microsomes, 150 donors, mixed gender
T2 sequence (P08684 2-503): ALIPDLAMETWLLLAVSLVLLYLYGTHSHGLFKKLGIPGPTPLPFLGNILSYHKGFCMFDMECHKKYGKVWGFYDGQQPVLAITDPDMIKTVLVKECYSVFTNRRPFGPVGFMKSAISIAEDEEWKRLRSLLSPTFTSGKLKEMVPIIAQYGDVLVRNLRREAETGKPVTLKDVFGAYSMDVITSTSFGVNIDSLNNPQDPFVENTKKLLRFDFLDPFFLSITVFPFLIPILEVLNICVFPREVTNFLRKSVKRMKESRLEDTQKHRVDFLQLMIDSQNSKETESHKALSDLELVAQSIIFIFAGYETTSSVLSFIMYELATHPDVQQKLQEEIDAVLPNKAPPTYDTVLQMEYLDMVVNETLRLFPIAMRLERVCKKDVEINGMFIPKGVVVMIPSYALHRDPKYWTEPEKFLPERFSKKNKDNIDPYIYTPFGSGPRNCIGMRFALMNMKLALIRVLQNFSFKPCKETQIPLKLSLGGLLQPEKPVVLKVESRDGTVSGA
Description: as §1, §2

CYP3A4 = CYP3A4 (Homo sapiens, UniProt P08684); test: Supersome CYP3A4 kinetic incubations; set-up: purchased Corning (Amsterdam, The Netherlands); host or cells: baculovirus-transfected insect cells
Chain of CYP3A4 (P08684 2-503 limits assumed): as the sequence (P08684 2-503) above
Description: The final incubations were carried out in 50 mM Tris–HCl (pH 7.4) containing 5 mM MgCl2, 1 mM EDTA (as an A-esterase PON1 inhibitor) (Bizoń and Milnerowicz [2018]), 50 µM iso-OMPA (as a B-esterases inhibitor) (Lane et al. [2006]), Supersome™ isoform (at final concentration of 0.005 nmol CYP/ml for 1A2, 0.001 nmol CYP/ml for 2B6, 0.01 nmol CYP/ml for 2C19, and 0.01 nmol CYP/ml for 3A4) and CPF at different final concentrations (0.05, 0.1, 0.25, 0.5, 1, 5 and 10 µM for 1A2, 0.05, 0.1, 0.25, 0.5, 1, 5 10 and 25 µM for 2B6, 1, 2.5, 5, 10, 25 and 50 µM for 2C19, and 0.5, 1, 2.5, 5, 10, 25 and 50 µM for 3A4), which were added from 100 times concentrated stock solutions in ACN. After 1 min preincubation in a 37 °C water bath, 5 µl NADPH (final concentration 1 mM) was added to the incubation system. Control incubations were performed by replacing NADPH with the same amount of Tris–HCl (pH 7.4). The total volume of the incubation mixtures was 200 µl. The incubations lasted for 2 min at 37 °C and were terminated by addition of 50 µl ice cold ACN and subsquently put on ice. After that, samples were centrifuged at 16,000 g (4 ℃) for 5 min and supernatants of samples were separated into two equal portions for Ultra-Performance Liquid Chromatography-Photodiode Array (UPLC-PDA) and Liquid Chromatography Mass Spectrometry (LC–MS/MS) analysis, respectively.
as §1
As mentioned before, the in vitro apparent kinetic parameters (Vmax and Km) for pathway 1 and pathway 2 in the HLM-based approach, and pathway 3 in both approaches were all obtained directly from reported studies using pooled HLMs (Buratti et al. [2003]; Sams et al. [2004]; Zhao et al. [2019]). Therefore, no extra calculations were required to define these parameters. The kinetic parameters for the ISEF calculation, pathway 1 and 2 in the Supersome™-based approach, and pathway 4 in both approaches (25 individuals) were all obtained by fitting the experimental data to the Michaelis–Menten model using GraphPad (GraphPad Prism 5.0 software, San Diego, CA, USA). It should be noted that the kinetic parameters for pathway 4 used in the two approaches were calculated as mean of the kinetic parameters (Vmax and Km) obtained using 25 individual HP samples (with correction for total protein concentration of each plasma sample).
The in vivo Kmi values were assumed to be equal to the apparent Kmi(app) values (µM) obtained in the in vitro incubations, while the in vivo Vmaxi for each CYP isoform was derived from their corresponding apparent CYP isoform Vmaxi(app) (pmol/min/pmolCYP) using Eq. 3:3 Vmaxi=Vmaxiapp×CYPiabundance×ISEF×60×MPL×1000×VL/1,000,000,

Row | Compound | Vmax (pooled HLMs) (CYP1A2 in pooled HLMs) | Vmax (pooled HLMs) (CYP3A4 in pooled HLMs) | Vmax (Supersome) (CYP3A4; 6β-hydroxytestosterone formation, Supersome CYP3A4) | ISEF (CYP3A4; CYP3A4, calculated on the basis of Eq. 4 from probe substrate Vmax in pooled HLMs and Supersome)
1 | CCOc1ccc(NC(C)=O)cc1 [Phenacetin, phenacetin] | 0.15 nmol/min/mg microsomal protein |  |  | 
2 | C[C@]12CC[C@H]3[C@@H](CCC4=CC(=O)CC[C@@]43C)[C@@H]1CC[C@@H]2O [Testosterone, testosterone, reference compound] |  | 17.29 nmol/min/mg microsomal protein | 1179 pmol/min/pmol CYP | 0.11
